Patent US20240390340A1 (INCYTE CORPORATION, priority 2023, published 2024)
pIC50: −log10 of the molar value. Like-named read-outs stand apart in the source and are kept apart here.

Experiments:
Caco-2 cells = experiment: Caco2 assay (Papp A-B); type: in vitro ADME; conditions: test compound 50 μM, 120 min, 37° C.
How it was run: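 Caco-2 monolayers grown 22–25 days on Transwells (TEER 300 Ω·cm^2) were dosed apically with 50 μM compound in HBSS; basolateral receiver held HBSS with 4% BSA. Incubation 120 min at 37° C, 5% CO2; donor and receiver samples quantified by LCMS and Papp A-B calculated from receiver-side cumulative flux slope.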

KRAS G12V = KRAS G12V (Homo sapiens, UniProt P01116, G12V); experiment: GDP-GTP exchange assay (bodipy-GDP/GppNHp, SOS1), KRAS G12V; type: biochemical
KRAS G12V, sequence (P01116 1-188 isoform P01116-2 G12V): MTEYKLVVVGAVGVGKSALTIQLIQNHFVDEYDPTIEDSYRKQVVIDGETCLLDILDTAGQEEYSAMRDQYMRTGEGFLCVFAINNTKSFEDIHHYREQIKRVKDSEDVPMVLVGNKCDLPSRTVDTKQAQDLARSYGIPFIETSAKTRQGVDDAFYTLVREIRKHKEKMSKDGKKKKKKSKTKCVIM

KRAS G12D = KRAS G12D (Homo sapiens, UniProt P01116, G12D); experiment: GDP-GTP exchange assay (bodipy-GDP/GppNHp, SOS1), KRAS G12D; type: biochemical
KRAS G12D, sequence (P01116 1-188 isoform P01116-2 G12D): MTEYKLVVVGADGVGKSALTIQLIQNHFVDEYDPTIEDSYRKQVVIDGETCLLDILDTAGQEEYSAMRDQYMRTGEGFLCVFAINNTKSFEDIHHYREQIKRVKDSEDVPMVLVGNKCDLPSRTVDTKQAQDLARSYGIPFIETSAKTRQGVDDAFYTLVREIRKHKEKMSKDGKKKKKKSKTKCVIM

[1] = Table H, column G12V, for compounds isolated as several atropisomers/diastereoisomers the value for the most potent isomer is quoted, read-out: KRAS G12V exchange assay IC50
[2] = Table H, column G12D, for compounds isolated as several atropisomers/diastereoisomers the value for the most potent isomer is quoted, read-out: KRAS G12D exchange assay IC50

Caco-2 (Caco-2 cells) | pIC50 (KRAS G12V; [1]) | pIC50 (KRAS G12D; [2]) | pIC50 (KRAS G12V; KRAS G12V mutant, value for the most potent isomer quoted for certain compounds, read-out: G12V (KRAS G12V exchange assay IC50)) | pIC50 (KRAS G12D; bodipy-loaded KRAS G12D 2.5 nM, 4 h pre-incubation, value for the most potent isomer quoted for certain compounds, read-out: G12D (KRAS G12D exchange assay IC50)) | SMILES
+ (a Caco-2 value of ≤0.5) | ≥ 7.00 | ≥ 7.00 |  |  | Cc1csnc1CO[C@H]1C[C@H](c2cc3c(-c4ccc(C(C)(C)O)nc4)nc4c(F)c(-c5cccc(Cl)c5Cl)c(CCC#N)cc4c3n2[C@H]2[C@H]3CN[C@@H]2C3)N(C(=O)C2CC2)C1 [Example 25]
+ (a Caco-2 value of ≤0.5) | ≥ 7.00 | ≥ 7.00 |  |  | CCc1c(-c2ccccc2)nnn1[C@H]1C[C@H](c2cc3c(C)nc4c(F)c(-c5cccc(Cl)c5Cl)c(CCC#N)cc4c3n2[C@H]2[C@H]3CN[C@@H]2C3)N(C(=O)C2CC2)C1 [Example 70, 3-(1-((1R,4R,5S)-2-Azabicyclo[2.1.1]hexan-5-yl)-2-((2R,4S)-1-(cyclopropanecarbonyl)-4-(5-ethyl-4-phenyl-1H-1,2,3-triazol-1-yl)pyrrolidin-2-yl)-7-(2,3-dichlorophenyl)-6-fluoro-4-methyl-1H-pyrrolo[3,2-c]quinolin-8-yl)propanenitrile]
++ (a Caco-2 value of >0.5 but ≤1) | ≥ 7.00 | ≥ 7.00 |  |  | Cc1nc2c(F)c(-c3cccc(Cl)c3Cl)c(CCC#N)cc2c2c1cc([C@H]1C[C@H](n3nccn3)CN1C(=O)C1CC1)n2[C@H]1[C@H]2CN[C@@H]1C2 [Example 74, 3-(1-((1R,4R,5S)-2-Azabicyclo[2.1.1]hexan-5-yl)-2-((2R,4S)-1-(cyclopropanecarbonyl)-4-(2H-1,2,3-triazol-2-yl)pyrrolidin-2-yl)-7-(2,3-dichlorophenyl)-6-fluoro-4-methyl-1H-pyrrolo[3,2-c]quinolin-8-yl)propanenitrile]
+ (a Caco-2 value of ≤0.5) | ≥ 7.00 | ≥ 7.00 |  |  | Cc1nc2c(F)c(-c3cccc(Cl)c3Cl)c(CCC#N)cc2c2c1cc([C@H]1C[C@H](OCc3nccs3)C3(CC3)N1C(=O)C1CC1)n2[C@H]1[C@H]2CN[C@@H]1C2 [Example 31]
+ (a Caco-2 value of ≤0.5) | ≥ 7.00 | ≥ 7.00 |  |  | Cc1nc2c(F)c(-c3cccc(Cl)c3Cl)c(CCC#N)cc2c2c1cc([C@H]1C[C@H](OCc3ccsn3)CN1C(=O)C1CC1)n2[C@H]1[C@H]2CN[C@@H]1C2 [Example 14]
+++ (a Caco-2 value of >1) | ≥ 7.00 | ≥ 7.00 |  |  | Cc1nc2c(F)c(-c3cccc(Cl)c3Cl)c(CCC#N)cc2c2c1cc([C@H]1C[C@H](Oc3cc(F)ccn3)CN1C(=O)C1CC1)n2[C@H]1[C@H]2CN[C@@H]1C2 [Example 56, 3-(1-((1R,4R,5S)-2-Azabicyclo[2.1.1]hexan-5-yl)-2-((2R,4S)-1-(cyclopropanecarbonyl)-4-((4-fluoropyridin-2-yl)oxy)pyrrolidin-2-yl)-7-(2,3-dichlorophenyl)-6-fluoro-4-methyl-1H-pyrrolo[3,2-c]quinolin-8-yl)propanenitrile]
+++ (a Caco-2 value of >1) | ≥ 7.00 | ≥ 7.00 |  |  | Cc1nc2c(F)c(-c3cccc(Cl)c3Cl)c(CCC#N)cc2c2c1cc([C@H]1C[C@H](Oc3cnn(C(F)F)c3)CN1C(=O)C1CC1)n2[C@H]1[C@H]2CN[C@@H]1C2 [Example 48, 3-(1-((1R,4R,5S)-2-Azabicyclo[2.1.1]hexan-5-yl)-2-((2R,4S)-1-(cyclopropanecarbonyl)-4-((1-(difluoromethyl)-1H-pyrazol-4-yl)oxy)pyrrolidin-2-yl)-7-(2,3-dichlorophenyl)-6-fluoro-4-methyl-1H-pyrrolo[3,2-c]quinolin-8-yl)propanenitrile]
+ (a Caco-2 value of ≤0.5) | ≥ 7.00 | ≥ 7.00 |  |  | Cc1nc2c(F)c(-c3cccc(Cl)c3Cl)c(CCC#N)cc2c2c1cc([C@H]1C[C@H](OCc3ccc(F)cc3C#N)CN1C(=O)C1CC1)n2[C@H]1[C@H]2CN[C@@H]1C2 [Example 17]
+ (a Caco-2 value of ≤0.5) | ≥ 7.00 | ≥ 7.00 |  |  | Cc1nc2c(F)c(-c3cccc(Cl)c3Cl)c(CCC#N)cc2c2c1cc([C@H]1C[C@H](OCc3cc(C(F)(F)F)sn3)CN1C(=O)C1CC1)n2[C@H]1[C@H]2CN[C@@H]1C2 [Example 11]
++ (a Caco-2 value of >0.5 but ≤1) | ≥ 7.00 | ≥ 7.00 |  |  | Cc1cc(CO[C@H]2C[C@H](c3cc4c(C)nc5c(F)c(-c6cccc(Cl)c6Cl)c(CCC#N)cc5c4n3[C@H]3[C@H]4CN[C@@H]3C4)N(C(=O)C3CC3)C2)no1 [Example 7]
++ (a Caco-2 value of >0.5 but ≤1) | ≥ 7.00 | ≥ 7.00 |  |  | Cc1cc(CO[C@H]2C[C@H](c3cc4c(C)nc5c(F)c(-c6cccc(Cl)c6Cl)c(CCC#N)cc5c4n3[C@H]3[C@H]4CN[C@@H]3C4)N(C(=O)C3CC3)[C@@H]2C)ns1 [Example 3]
+ (a Caco-2 value of ≤0.5) | ≥ 7.00 | ≥ 7.00 |  |  | CC(O)c1nc2c(F)c(-c3cccc(Cl)c3Cl)c(CCC#N)cc2c2c1cc([C@H]1C[C@H](OCc3c(F)cccc3F)CN1C(=O)C1CC1)n2[C@H]1[C@H]2CN[C@@H]1C2 (stereo partly drawn) [Example 34]
+ (a Caco-2 value of ≤0.5) | ≥ 7.00 | ≥ 7.00 |  |  | Cc1nc2c(F)c(-c3cccc(Cl)c3Cl)c(CCC#N)cc2c2c1cc([C@H]1C[C@H](Oc3cccnc3OC(F)F)CN1C(=O)C1CC1)n2[C@H]1[C@H]2CN[C@@H]1C2 [Example 37, 3-(1-((1R,4R,5S)-2-Azabicyclo[2.1.1]hexan-5-yl)-2-((2R,4S)-1-(cyclopropanecarbonyl)-4-((2-(difluoromethoxy)pyridin-3-yl)oxy)pyrrolidin-2-yl)-7-(2,3-dichlorophenyl)-6-fluoro-4-methyl-1H-pyrrolo[3,2-c]quinolin-8-yl)propanenitrile]
+ (a Caco-2 value of ≤0.5) | ≥ 7.00 | ≥ 7.00 |  |  | Cc1nc2c(F)c(-c3cccc(Cl)c3Cl)c(CCC#N)cc2c2c1cc([C@H]1C[C@H](OCc3nccs3)CN1C(=O)C1CC1)n2[C@H]1[C@H]2CN[C@@H]1C2 [Example 9]
+++ (a Caco-2 value of >1) | ≥ 7.00 | ≥ 7.00 |  |  | COc1ncccc1O[C@H]1C[C@H](c2cc3c(C)nc4c(F)c(-c5cccc(Cl)c5Cl)c(CCC#N)cc4c3n2[C@H]2[C@H]3CN[C@@H]2C3)N(C(=O)C2CC2)C1 [Example 1, 3-(1-((1R,4R,5S)-2-Azabicyclo[2.1.1]hexan-5-yl)-2-((2R,4S)-1-(cyclopropanecarbonyl)-4-((2-methoxypyridin-3-yl)oxy)pyrrolidin-2-yl)-7-(2,3-dichlorophenyl)-6-fluoro-4-methyl-1H-pyrrolo[3,2-c]quinolin-8-yl)propanenitrile]
+++ (a Caco-2 value of >1) |  |  | ≥ 7.00 | ≥ 7.00 | Cc1nc2c(F)c(-c3cccc(Cl)c3Cl)c(CCC#N)cc2c2c1cc([C@H]1C[C@](C)(OCc3ccccc3)CN1C(=O)C1CC1)n2[C@H]1[C@H]2CN[C@@H]1C2 [Example 81, 3-(2-((2R,4S)-4-(Benzyloxy)-1-(cyclopropanecarbonyl)-4-methylpyrrolidin-2-yl)-1-((1R,4R,5S)-2-azabicyclo[2.1.1]hexan-5-yl)-7-(2,3-dichlorophenyl)-6-fluoro-4-methyl-1H-pyrrolo[3,2-c]quinolin-8-yl)propanenitrile]
++ (a Caco-2 value of >0.5 but ≤1) | ≥ 7.00 | ≥ 7.00 |  |  | Cc1cc(F)cc(O[C@H]2C[C@H](c3cc4c([C@@H](C)O)nc5c(F)c(-c6cccc(Cl)c6Cl)c(CCC#N)cc5c4n3[C@H]3[C@H]4CN[C@@H]3C4)N(C(=O)C3CC3)C2)n1 [Example 62, 3-(1-((1R,4R,5S)-2-Azabicyclo[2.1.1]hexan-5-yl)-2-((2R,4S)-1-(cyclopropanecarbonyl)-4-((4-fluoro-6-methylpyridin-2-yl)oxy)pyrrolidin-2-yl)-7-(2,3-dichlorophenyl)-6-fluoro-4-((R)-1-hydroxyethyl)-1H-pyrrolo[3,2-c]quinolin-8-yl)propanenitrile]
+ (a Caco-2 value of ≤0.5) | ≥ 7.00 | ≥ 7.00 |  |  | CN(C)C(=O)c1ccc(-c2nc3c(F)c(-c4cccc(Cl)c4Cl)c(CCC#N)cc3c3c2cc([C@H]2C[C@H](OCc4c(F)cccc4F)CN2C(=O)C2CC2)n3[C@H]2[C@H]3CN[C@@H]2C3)cn1 [Example 26]
+ (a Caco-2 value of ≤0.5) | ≥ 7.00 | ≥ 7.00 |  |  | Cc1nonc1CO[C@H]1C[C@H](c2cc3c(C)nc4c(F)c(-c5cccc(Cl)c5Cl)c(CCC#N)cc4c3n2[C@H]2[C@H]3CN[C@@H]2C3)N(C(=O)C2CC2)C1 [Example 33]
+ (a Caco-2 value of ≤0.5) | ≥ 7.00 | ≥ 7.00 |  |  | Cc1nc2c(F)c(-c3cccc(Cl)c3Cl)c(CCC#N)cc2c2c1cc([C@H]1C[C@H](OCc3ccnn3C(F)F)CN1C(=O)C1CC1)n2[C@H]1[C@H]2CN[C@@H]1C2 [Example 8]
+ (a Caco-2 value of ≤0.5) | ≥ 7.00 | ≥ 7.00 |  |  | Cc1nc2c(F)c(-c3cccc(Cl)c3Cl)c(CCC#N)cc2c2c1cc([C@H]1C[C@H](OCc3noc4ccccc34)CN1C(=O)C1CC1)n2[C@H]1[C@H]2CN[C@@H]1C2 [Example 6]
